Data on 13 molecules can be found in ChEMBL document CHEMBL1201862, “PubChem BioAssay data set” (2004).

Among the test systems are 786-0; A549; CAKI-1; EKVX; HL-60; HOP-62; IGROV-1; K562; KM12; NCI-H23; OVCAR-3; OVCAR-4; OVCAR-8; SK-MEL-2; SNB-75; UO-31.
What all share (assay): NCI-60 cell line screen, 48 h

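Protocol summary: plate cells (96-well), add compound at 5 concentrations, incubate 48 h, interpolate endpoints linearly. GI50 is the concentration that inhibits growth by half.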 Active and inactive are the calls of the source. Cut-off read from the data, not from the text of the source: active = GI50 up to about 1.1 µM and inactive = higher.

As to `CCOC(=O)NN1C(=O)C(=P(c2ccccc2)(c2ccccc2)c2ccccc2)C(C(=O)OCC)=C1C`, the GI50 with 786-0, in the experiment with A549, with CAKI-1, in the experiment on EKVX, in the experiment on HL-60 and with HOP-62 was > 100 µM (inactive) throughout. Further, the GI50 with IGROV-1, with K562, in the experiment on KM12, in the experiment on NCI-H23, with OVCAR-3 and with OVCAR-4 was > 100 µM (inactive) each time. The GI50 in the experiment with OVCAR-8, with SK-MEL-2, in the experiment with SNB-75 and in the experiment with UO-31 was > 100 µM (inactive) each time.

As to `CCOC(=O)C1Nc2ccccc2[C@H]2OCC[C@@H]12` (stereo not given in full), the GI50 in the experiment with 786-0, with A549, with CAKI-1, in the experiment on EKVX, in the experiment on HL-60 and in the experiment with HOP-62 was > 100 µM (inactive) in each case. The GI50 with IGROV-1, in the experiment on K562, in the experiment on KM12, in the experiment with NCI-H23, with OVCAR-3 and in the experiment on OVCAR-4 was > 100 µM (inactive) each time. The GI50 in the experiment with OVCAR-8 is > 100 µM (inactive); with SK-MEL-2, 0.0596 µM (active); in the experiment on SNB-75, > 100 µM (inactive).

`COc1ccc(NC(=O)CC(=O)N/N=C/c2ccc(N(CCC#N)S(=O)(=O)c3ccccc3)cc2)cc1`: the GI50 with 786-0, in the experiment with A549, in the experiment on CAKI-1, in the experiment with EKVX, in the experiment with HL-60 and with HOP-62 was > 100 µM (inactive) in each case. Further, the GI50 with IGROV-1, with K562, in the experiment on KM12, in the experiment on NCI-H23, with OVCAR-3 and in the experiment with OVCAR-4 was > 100 µM (inactive) in each case. Besides, the GI50 with OVCAR-8 is > 100 µM (inactive); with SK-MEL-2 it was > 100 µM (inactive); in the experiment with SNB-75, > 10 µM (inactive); with UO-31, > 100 µM (inactive).

Take `O=C1Nc2ccc(Br)cc2/C1=N/Nc1ccc([N+](=O)[O-])cc1`: the GI50 in the experiment with 786-0 was 11.4 µM (inactive); in the experiment on A549, 19 µM (inactive); in the experiment on CAKI-1, 22.8 µM (inactive); in the experiment with EKVX, 23.9 µM (inactive); with HL-60 it was 12.6 µM (inactive); in the experiment with HOP-62, 18.9 µM (inactive). Further, the GI50 with IGROV-1 is 38.8 µM (inactive); in the experiment with K562 it was 19.6 µM (inactive); in the experiment on KM12, 24.6 µM (inactive); in the experiment with NCI-H23, 22 µM (inactive); in the experiment on OVCAR-3, 19.9 µM (inactive); in the experiment on OVCAR-4, 17.3 µM (inactive). Further, the GI50 is 14.4 µM (inactive) in the experiment on OVCAR-8, 31 µM (inactive) with SK-MEL-2, 19.3 µM (inactive) in the experiment on SNB-75 and 30.1 µM (inactive) in the experiment with UO-31.

`N=C(N)NS(=O)(=O)c1ccc(Nc2c3ccccc3nc3c(C(=O)N4CCN(CCO)CC4)cccc23)cc1`: the GI50 in the experiment on 786-0, in the experiment with A549, in the experiment with CAKI-1, in the experiment with EKVX, in the experiment with HL-60 and in the experiment on HOP-62 was > 100 µM (inactive) in each case. Besides, the GI50 with IGROV-1, with K562, in the experiment on KM12, with NCI-H23, with OVCAR-3 and with OVCAR-4 was > 100 µM (inactive) in each case. Also, the GI50 in the experiment on OVCAR-8, with SK-MEL-2, with SNB-75 and with UO-31 was > 100 µM (inactive) throughout.

On to `Cc1cccc(C(C)C)c1NC(=O)CC1C(=O)Nc2ccccc2S1(=O)=O` (stereo not given), for which the GI50 was 13.9 µM (inactive) in the experiment with 786-0; 16.8 µM (inactive) with A549; 6.58 µM (inactive) in the experiment on CAKI-1; 16 µM (inactive) with EKVX; 5.28 µM (inactive) in the experiment on HL-60; 54.6 µM (inactive) with HOP-62. The GI50 with IGROV-1 was 22.5 µM (inactive); with K562, 2.22 µM (inactive); in the experiment on KM12 it was 19.4 µM (inactive); with NCI-H23, 9.06 µM (inactive); with OVCAR-3, 12.2 µM (inactive); with OVCAR-4, 12.2 µM (inactive). For the same molecule, the GI50 in the experiment with OVCAR-8 was 14.4 µM (inactive); in the experiment on SK-MEL-2, > 38.3 µM (inactive); in the experiment on SNB-75, 21.5 µM (inactive); with UO-31, 13.5 µM (inactive).

With `Cc1ccc(S(=O)(=O)c2c(N)c3nccn3c3nc4ccccc4nc23)cc1`, the GI50 in the experiment on 786-0 is 49 µM (inactive); with A549 it was > 100 µM (inactive); in the experiment with CAKI-1, > 100 µM (inactive); in the experiment with EKVX, > 100 µM (inactive); in the experiment with HL-60, > 100 µM (inactive); with HOP-62, 81.7 µM (inactive). Besides, the GI50 was 13.5 µM (inactive) in the experiment on IGROV-1; > 100 µM (inactive) in the experiment with K562; > 100 µM (inactive) in the experiment on KM12; > 100 µM (inactive) in the experiment on NCI-H23; > 100 µM (inactive) with OVCAR-3; > 100 µM (inactive) in the experiment with OVCAR-4. In addition, the GI50 in the experiment with OVCAR-8 is > 100 µM (inactive); with SK-MEL-2, > 100 µM (inactive); in the experiment on SNB-75, 7.85 µM (inactive); in the experiment with UO-31 it was > 100 µM (inactive).

Take `O=C(Cc1ccccc1)C(c1ccccc1)S(=O)(=O)c1ccccc1` (stereo not given): the GI50 in the experiment on 786-0 was > 100 µM (inactive); with A549, 59.4 µM (inactive); with CAKI-1 it was > 100 µM (inactive); in the experiment with EKVX, > 100 µM (inactive); in the experiment with HL-60, > 100 µM (inactive); in the experiment on HOP-62, > 100 µM (inactive). Besides, the GI50 with IGROV-1 was > 100 µM (inactive); in the experiment with K562 it was 93.3 µM (inactive); with KM12 it was > 100 µM (inactive); in the experiment on NCI-H23 it was 77.4 µM (inactive); in the experiment on OVCAR-3 it was > 100 µM (inactive); in the experiment on OVCAR-4 it was 73.3 µM (inactive). For the same molecule, the GI50 in the experiment on OVCAR-8 was > 100 µM (inactive); in the experiment with SK-MEL-2, > 100 µM (inactive); in the experiment with SNB-75, 23 µM (inactive); with UO-31, 41.2 µM (inactive).

As for `O=C1c2ccccc2C2(O)Oc3cccc(O)c3C12O` (stereo not given), the GI50 in the experiment on 786-0, in the experiment with A549, in the experiment with CAKI-1, with EKVX, with HL-60 and with HOP-62 was > 100 µM (inactive) each time. Also, the GI50 with IGROV-1, in the experiment on K562, with KM12, in the experiment on NCI-H23, in the experiment with OVCAR-3 and in the experiment with OVCAR-4 was > 100 µM (inactive) each time. The GI50 in the experiment on OVCAR-8, in the experiment on SK-MEL-2, with SNB-75 and in the experiment with UO-31 was > 100 µM (inactive) each time.

Regarding `CSc1nc2c(nc(N)n2C2OCC(O)C(O)C2O)c(=O)n1C` (stereo not given), the GI50 with 786-0, with A549, in the experiment on CAKI-1, in the experiment with EKVX, in the experiment with HL-60 and in the experiment on HOP-62 was > 100 µM (inactive) in each case. Also, the GI50 with IGROV-1, with K562, with KM12, in the experiment on NCI-H23, in the experiment on OVCAR-3 and in the experiment on OVCAR-4 was > 100 µM (inactive) throughout. Further, the GI50 with OVCAR-8, in the experiment on SNB-75 and in the experiment with UO-31 was > 100 µM (inactive) throughout.

With `O=C1CNNC(Cn2nc(-c3ccccc3)c3ccccc3c2=O)=N1`, the GI50 in the experiment with 786-0, with A549, in the experiment on HL-60, with HOP-62, with IGROV-1 and in the experiment with K562 was > 100 µM (inactive) each time. The GI50 with KM12, with NCI-H23, in the experiment on OVCAR-3, in the experiment on OVCAR-4, in the experiment with OVCAR-8 and in the experiment on SK-MEL-2 was > 100 µM (inactive) throughout. In addition, the GI50 was 83 µM (inactive) in the experiment on SNB-75 and > 100 µM (inactive) in the experiment with UO-31.

Take `O=C(Cc1ccccc1)Oc1ccc2c(-c3ccccc3)c(C(=O)Nc3ccc(Cl)cc3)c(=O)oc2c1`: the GI50 in the experiment with 786-0, in the experiment on A549, in the experiment with CAKI-1, in the experiment on EKVX, in the experiment with HL-60 and in the experiment with HOP-62 was > 100 µM (inactive) each time. Besides, the GI50 in the experiment on IGROV-1, in the experiment with K562, in the experiment with KM12, in the experiment with NCI-H23, in the experiment with OVCAR-3 and in the experiment with OVCAR-4 was > 100 µM (inactive) throughout. For the same molecule, the GI50 in the experiment on OVCAR-8, in the experiment on SNB-75 and with UO-31 was > 100 µM (inactive) in each case.

Take `COc1ccc2oc(C(=O)O)c3c2c1CCC3CCC(=O)O` (stereo not given): the GI50 in the experiment on 786-0, in the experiment with A549, with EKVX, in the experiment with HL-60, with IGROV-1 and in the experiment with K562 was > 100 µM (inactive) in each case. Further, the GI50 in the experiment on KM12, in the experiment on NCI-H23, with OVCAR-4, in the experiment with OVCAR-8, in the experiment on SK-MEL-2 and in the experiment on SNB-75 was > 100 µM (inactive) each time. Besides, in the experiment on UO-31, the GI50 is > 100 µM (inactive).
